Results as given in EP0380897B1, “Pharmaceutical agents for female sterilization by way of intrauterine administration, and their therapeutical use” (priority 1989, dated 1990).
Read-outs that look alike come from different tables or passages of the source.

Columns and labels:
trompes humaines = experiment: Clinical follow-up of pregnancies after non-surgical female sterilization with intrauterine quinacrine tablets, alone or with an anti-inflammatory adjuvant; format: in vivo, femmes; details: for taux de grossesse: quinacrine alone
Procedure: (§1) Ce symptôme est survenu chez 6 % des sujets dans les deux insertions ou seulement dans une seule. • b) un phénomène de fièvre de 38°C à 39,5°C apparaissant le surlendemain du jour d'insertion et durant de 1 à 4 jours, sans relation avec le mal de tête. Les deux symptômes sont corrélés chez seulement quelques sujets. La fièvre est apparue chez 5 % des cas (parfois lors de la première insertion et parfois lors de la seconde). Les autres complications ont été semblables à celles décrites dans l'article publié précédemment J. Zipper et al. Adv. in Contraception 3(1987)255. A la fin de l'année de suivi, le taux de grossesse a été de 3,0 pour 100 femmes et par an.
(§2) Un autre groupe utilisant la quinacrine seule a été constitué, qui a subi deux insertions intra-utérines avec des comprimés à 180 mg. Les insertions ont été séparées par un cycle menstruel - 190 sujets sont entrés dans cette étude. […] Chez un petit nombre de sujets seulement les deux symptômes ont été présents simultanément. La fièvre est apparue dans 3% des cas (pas nécessairement lors des deux insertions). Ce groupe a manifesté un taux de grossesse de 3 pour 100 femmes, et par an à la fin de la première année du suivi. Les deux groupes quinacrine (250 et 180 mg) ont été considéré comme des témoins pour les autres groupes qui ont reçu un anti-inflammatoire, un antipyrétique et des substances anti-prostagrandines.
(§3) 4 mg de Bétaméthasone et 4 mg de Dexaméthasone ont été employé dans des groupes distincts de sujets. • 1 - 4 mg de Betaméthasone intra-musculaire Ce groupe incluait 90 sujets - 4 mg de Bethaméthasone ont été injectés lorsque le comprimé de quinacrine à 250 mg a été inséré. Ce procédé a été utilisé à nouveau avec le second comprimé (comprimé à 250 mg ayant un temps de dissolution de 100 mn). […] Les sujets ont achevé une année de suivi et ont représenté 1220 mois. […] Ce groupe incluait 65 sujets. […] Ces sujets ont effectué au total 830 mois de suivi. […] Ceci nous a conduit à faire des investigations sur la potentialisation possible des effets occlusifs de la quinacrine chez le rat dû à la betaméthasone. Cette méthode expérimentale est celle décrite pour d'autres substances (ref. Agent pharmacologique qui potentialisent ou inhibent l'action occlusivante de la quinacrine, dans le tube du lapin et dans l'utérus de rat cf J. ZIPPER-S.INSUNSA Female Stérilization - pronostic pour des techniques simplifiées pour le sujet ambulatoire Ed Gordon, W. Duncan, R.D. Falb et J. Joseph SPEIDEL (p 131-137), NEW YORK Acad. Press 1972 compte-rendu). La Betamethasone s'est révélée être active chez le rat, avec des solutions de l'ordre de 005 mg/ml. La base physiologique de cette action n'a pas été déterminée et aucun rapport à ce sujet n'a été publié (cf histologie de l'utérus de rat sous l'influence de 50 mg/ml de quinacrine + 0, 05 mg /ml Betamethasone Figure 1).
Ce groupe inclue 80 sujets. Lorque le comprimé de 250 mg est inséré, 4 mg de Dexamethatone sont injectés par voie intramusculaire. La méthode est réputée avec un second comprimé. […] Les sujets ont achevé 950 mois de suivi.
L'insertion est effectuée après que les comprimé aient été insérés. Ce groupe inclût 60 sujets. […] Ce groupe avait 850 mois de suivi.
La bétaméthasone et la Dexamethasone sont des stéroïdes ayant une activité puissante antiphlogistique, anti-inflammatoire et anti-oedemateuse au niveau cérébral et sont des adjuvants importants pour réduire les effets secondaires indésirables de la quinacrine lorsque cette substance est employée pour provoquer l'occlusion la région intra-murale des trompes humaines afin de réaliser une stérilisation pharmacologique. En outre, un mécanisme d'action qui n'est pas clair, semble renforcer l'action d'occlusion de la quinacrine à ce niveau. Le nombre total de sujets a été de 295 et a représenté 3850 mois/femmes d'observation. Seulement une grossesse a été détectée. […]

sujets = details: cited from earlier work
femmes = experiment: Clinical follow-up of side effects (fever, headache) after intrauterine insertion of quinacrine tablets, alone or with an anti-inflammatory adjuvant; format: in vivo
Procedure: as §1
as §2, with “anti-prostagrandines. […]” for “anti-prostagrandines.”
• 1 - Diclofenac sel de sodium - Cet important agent anti-inflammatoire et inhibiteur de synthèse de prostaglandine a été appliqué en une dose unique intramusculaire de 75 mg, lorsque le comprimé de quinacrine à 180 mg a été inséré. Deux insertions par sujet ont été effectuées, séparées par un cycle menstruel - 78 sujets ont été traités - 702 mois de suivi. […] Ce procédé a été utilisé à nouveau avec le second comprimé séparé par un cycle menstruel. […] Ce groupe incluait 85 sujets. Les sujets ont achevé 1190 mois de suivi. […] Cet agent antipyrétique anti-inflammatoire a été appliqué en une dose unique intramusculaire de 2 g lorsque le pellet de quinacrine à 180 mg (temps de dissolution 10 minutes) a été inséré. Deux insertions, séparées par un cycle mentruel ont été effectuées - 76 sujets ont été traités, 1064 mois de suivi. […] D'autres agents anti-inflammatoires , antiprostaglandine non stéroidiens comme le Piroxicam, Indomethacine, Ibuprogene, Naproxen ou d'autres peuvent être utilisés. La recherche avec quelques uns de ces agents est en développement. De même, la recherche avec les inhibiteurs de synthèse de prostaglandines appliqués par voie intrautérine ou intramusculaire une seule fois est en développement.

utérus de rat = experiment: Potentiation of the occlusive effect of quinacrine in the rat uterus; format: in vivo; details: solutions of the order of 005 mg/ml (Figure 1: 50 mg/ml quinacrine + 0, 05 mg /ml)
Procedure: as §3, with “La base physiologique de cette action n'a pas été déterminée et aucun rapport à ce sujet n'a été publié (cf histologie de l'utérus de rat sous l'influence de 50 mg/ml de quinacrine + 0, 05 mg /ml Betamethasone Figure 1).” left out

[1] = share of subjects after the first insertion of quinacrine (250 mg)
[2] = share of subjects after the third insertion of quinacrine (250 mg)
[3] = 50 mg tablets by the 'intra-urétine' route simultaneously with quinacrine tablets (180 mg, dissolution time 10 min), two insertions, 85 subjects, first seven days
[4] = single 75 mg intramuscular dose at each of two insertions of 180 mg quinacrine tablet, 78 subjects, first week

## CCN(CC)CCCC(C)Nc1c2ccc(Cl)cc2nc2ccc(OC)cc12 (stereo not shown) [quinacrine]
Trompes humaines; two insertions of 250 mg tablets, 209 subjects, 2544 months, end of the year of follow-up
  taux de grossesse: 3,0 pour 100 femmes et par an
Trompes humaines; two intrauterine insertions of 180 mg tablets, 190 subjects, end of first year of follow-up
  taux de grossesse: 3 pour 100 femmes, et par an
sujets; [1]
  fièvre: 10%
  maux de tête: 9%
sujets; [2]
  fièvre: 2%
  maux de tête: 10,2%

## O=C(O)Cc1ccccc1Nc1c(Cl)cccc1Cl [Diclofenac sel de sodium]
femmes; [3]
  fièvre: ni fièvre
  maux de tête: ni maux de tête
femmes; [4]
  fièvre: ni fièvre
  mal de tête: ni mal de tête
Trompes humaines; 50 mg tablets by the 'intra-urétine' route simultaneously with quinacrine tablets (180 mg, dissolution time 10 min), 85 subjects, 1190 months of follow-up
  grossesse: Aucune grossesse n'a été détectée
Trompes humaines; single 75 mg intramuscular dose at each of two insertions of 180 mg quinacrine tablet, 78 subjects, 702 months of follow-up
  grossesse: aucune grossesse n'a été détectée

## Cc1c(N(C)CS(=O)(=O)O)c(=O)n(-c2ccccc2)n1C [Dipyrone, metamizol sel de sodium]
Trompes humaines; single 2 g intramuscular dose at each of two insertions of 180 mg quinacrine pellet (dissolution time 10 min), 76 subjects, 1064 months of follow-up
  grossesse: aucune grossesse n'a été détectée

## C[C@H]1C[C@H]2[C@@H]3CCC4=CC(=O)C=C[C@]4(C)[C@@]3(F)[C@@H](O)C[C@]2(C)[C@@]1(O)C(=O)CO [Betaméthasone]
Trompes humaines; 4 mg intramuscular at each of two insertions of 250 mg quinacrine tablet, 90 subjects, 1220 months of follow-up, pregnancy in sixth month
  grossesse: Seulement une grossesse normotopique a été détectée
Trompes humaines; 4 mg intrauterine (solution in 1 ml) simultaneously with quinacrine tablet, 65 subjects, 830 months of follow-up
  grossesse: Aucune grossesse n'a été signalée
utérus de rat
  potentialisation des effets occlusifs de la quinacrine: active
